Tested on: bacterial strains
Assay: Potentiation/synergy antimicrobial assay (checkerboard, FICI) with antibiotics
Format: cell-based
Conditions: for MIC of antibiotic with 6442 at concn 0: 6442 0 μg/mL; for MIC of antibiotic with 6442 at concn 0.03: 6442 0.03 μg/mL; for MIC of antibiotic with 6442 at concn 0.0625: 6442 0.0625 μg/mL; for MIC of antibiotic with 8980 at conc 0: 8980 0 μg/mL; for MIC of antibiotic with 8980 at conc 1: 8980 1 μg/mL; for MIC of antibiotic with 8980 at conc 2: 8980 2 μg/mL; for MIC of antibiotic with 8980 at conc 4: 8980 4 μg/mL; for MIC of antibiotic with 8980 at conc 8: 8980 8 μg/mL; for MIC of antibiotic with 8981 at conc 0: 8981 0 μg/mL; for MIC of antibiotic with 8981 at conc 1: 8981 1 μg/mL; for MIC of antibiotic with 8981 at conc 2: 8981 2 μg/mL; for MIC of antibiotic with 8981 at conc 4: 8981 4 μg/mL; for MIC of antibiotic with 8981 at conc 8: 8981 8 μg/mL; for MIC of antibiotic with OctC4 at concn 0: OctC4 0 μg/mL; for MIC of antibiotic with OctC4 at concn 0.03: OctC4 0.03 μg/mL; for MIC of antibiotic with OctC4 at concn 0.0625: OctC4 0.0625 μg/mL; for MIC of antibiotic with OctC4 at concn 0.125: OctC4 0.125 μg/mL; for MIC of antibiotic with 6442 at concn 0.25: 6442 0.25 μg/mL
Protocol: Potentiation/synergy antimicrobial assays were conducted in the same manner as the standard MICs described above, with the following modifications. Assays were performed in 384-well non-binding surface plates (NBS; Corning 3460) and in Cation-adjusted Mueller Hinton Broth (CA-MHB; BD, Cat. No. 212322) with a final assay volume of 50 μL once bacteria was added at 5×10^5 CFU/mL. Antibiotics and octapeptin compounds were plated in duplicate as a 2-fold concentration series, in a matrix checkerboard format. The bacterial cell density of the resultant assay plates after 18-20 h incubation at 37° C. was read by optical density 600 nm (OD600) using a Tecan M1000 Pro Spectrophotometer, and analysed for ≥90% growth inhibition compared to the growth control to determine active concentrations. Synergistic effect was calculated based on the fractional inhibitory concentration index (FICI) by the following equation, where synergy is deemed FICI 0.5: […]

CN(C)c1ccc(O)c2c1C[C@H]1C[C@H]3[C@H](N(C)C)C(O)=C(C(N)=O)C(=O)[C@@]3(O)C(O)=C1C2=O [Minocycline, minocycline]
MIC of antibiotic with 6442 at concn 0 (GN_007 E. coli ESBL): 0.25 µg/mL
MIC of antibiotic with 6442 at concn 0.03 (GN_007 E. coli ESBL): 0.25 µg/mL
MIC of antibiotic with 6442 at concn 0.0625 (GN_007 E. coli ESBL): 0.125 µg/mL
MIC of antibiotic with 8980 at conc 0 (GN_007 E. coli ESBL): 0.25 µg/mL
MIC of antibiotic with 8980 at conc 1 (GN_007 E. coli ESBL): 0.125 to 0.25 µg/mL
MIC of antibiotic with 8980 at conc 2 (GN_007 E. coli ESBL): 0.125 µg/mL
MIC of antibiotic with 8980 at conc 4 (GN_007 E. coli ESBL): 0.06 to 0.125 µg/mL
MIC of antibiotic with 8980 at conc 8 (GN_007 E. coli ESBL): 0.06 to 0.125 µg/mL
MIC of antibiotic with 8981 at conc 0 (GN_007 E. coli ESBL): 0.25 µg/mL
MIC of antibiotic with 8981 at conc 1 (GN_007 E. coli ESBL): 0.25 µg/mL
MIC of antibiotic with 8981 at conc 2 (GN_007 E. coli ESBL): 0.125 to 0.25 µg/mL
MIC of antibiotic with 8981 at conc 4 (GN_007 E. coli ESBL): 0.03 to 0.125 µg/mL
MIC of antibiotic with 8981 at conc 8 (GN_007 E. coli ESBL): 0.03 to 0.125 µg/mL
MIC of antibiotic with OctC4 at concn 0 (GN_007 E. coli ESBL): 0.25 µg/mL
MIC of antibiotic with OctC4 at concn 0.03 (GN_007 E. coli ESBL): 0.25 µg/mL
MIC of antibiotic with OctC4 at concn 0.0625 (GN_007 E. coli ESBL): 0.125 to 0.25 µg/mL
MIC of antibiotic with OctC4 at concn 0.125 (GN_007 E. coli ESBL): 0.125 µg/mL
MIC of antibiotic with 8980 at conc 0 (GN_019 A. baumannii CARB): 4 µg/mL
MIC of antibiotic with 8981 at conc 0 (GN_019 A. baumannii CARB): 4 µg/mL
MIC of antibiotic with 8981 at conc 1 (GN_019 A. baumannii CARB): 2 to 16 µg/mL
MIC of antibiotic with 8981 at conc 2 (GN_019 A. baumannii CARB): 2 to 16 µg/mL
MIC of antibiotic with 6442 at concn 0 (GN_045 K. pneumoniae NDM-1): 32 µg/mL
MIC of antibiotic with 6442 at concn 0.03 (GN_045 K. pneumoniae NDM-1): 32 µg/mL
MIC of antibiotic with 6442 at concn 0.0625 (GN_045 K. pneumoniae NDM-1): 32 µg/mL
MIC of antibiotic with 8980 at conc 0 (GN_045 K. pneumoniae NDM-1): 32 µg/mL
MIC of antibiotic with 8981 at conc 0 (GN_045 K. pneumoniae NDM-1): 32 µg/mL
MIC of antibiotic with OctC4 at concn 0 (GN_045 K. pneumoniae NDM-1): 32 µg/mL
MIC of antibiotic with OctC4 at concn 0.03 (GN_045 K. pneumoniae NDM-1): 32 µg/mL
MIC of antibiotic with OctC4 at concn 0.0625 (GN_045 K. pneumoniae NDM-1): 32 µg/mL
MIC of antibiotic with OctC4 at concn 0.125 (GN_045 K. pneumoniae NDM-1): 32 µg/mL
MIC of antibiotic with 8980 at conc 0 (GN_093 A. baumannii XDR/PmxR): 8 µg/mL
MIC of antibiotic with 8981 at conc 0 (GN_093 A. baumannii XDR/PmxR): 8 µg/mL
MIC of antibiotic with 8981 at conc 1 (GN_093 A. baumannii XDR/PmxR): 4 to 32 µg/mL
MIC of antibiotic with 8981 at conc 2 (GN_093 A. baumannii XDR/PmxR): 2 to 32 µg/mL
MIC of antibiotic with 6442 at concn 0 (GN_102 K. pneumoniae XDR/PmxR): 32 µg/mL
MIC of antibiotic with 6442 at concn 0.03 (GN_102 K. pneumoniae XDR/PmxR): 16 µg/mL
MIC of antibiotic with 6442 at concn 0.0625 (GN_102 K. pneumoniae XDR/PmxR): 16 µg/mL
MIC of antibiotic with 8980 at conc 0 (GN_102 K. pneumoniae XDR/PmxR): 32 µg/mL
MIC of antibiotic with 8981 at conc 0 (GN_102 K. pneumoniae XDR/PmxR): 32 µg/mL
MIC of antibiotic with OctC4 at concn 0 (GN_102 K. pneumoniae XDR/PmxR): 32 µg/mL
MIC of antibiotic with OctC4 at concn 0.03 (GN_102 K. pneumoniae XDR/PmxR): 32 µg/mL
MIC of antibiotic with OctC4 at concn 0.0625 (GN_102 K. pneumoniae XDR/PmxR): 16 µg/mL
MIC of antibiotic with OctC4 at concn 0.125 (GN_102 K. pneumoniae XDR/PmxR): 16 µg/mL
MIC of antibiotic with 6442 at concn 0 (GN_105 P. aeruginosa PmxR): 8 µg/mL
MIC of antibiotic with 6442 at concn 0.03 (GN_105 P. aeruginosa PmxR): 4 µg/mL
MIC of antibiotic with 6442 at concn 0.0625 (GN_105 P. aeruginosa PmxR): 2 to 4 µg/mL
MIC of antibiotic with 6442 at concn 0.25 (GN_105 P. aeruginosa PmxR): 0.06 µg/mL
MIC of antibiotic with 8980 at conc 0 (GN_105 P. aeruginosa PmxR): 8 µg/mL
MIC of antibiotic with 8980 at conc 2 (GN_105 P. aeruginosa PmxR): 1 µg/mL
MIC of antibiotic with 8980 at conc 4 (GN_105 P. aeruginosa PmxR): 1 µg/mL
MIC of antibiotic with 8981 at conc 0 (GN_105 P. aeruginosa PmxR): 8 µg/mL
MIC of antibiotic with OctC4 at concn 0 (GN_105 P. aeruginosa PmxR): 8 µg/mL
MIC of antibiotic with OctC4 at concn 0.03 (GN_105 P. aeruginosa PmxR): 8 µg/mL
MIC of antibiotic with OctC4 at concn 0.0625 (GN_105 P. aeruginosa PmxR): 4 µg/mL
MIC of antibiotic with OctC4 at concn 0.125 (GN_105 P. aeruginosa PmxR): 4 µg/mL
MIC of antibiotic with 6442 at concn 0 (GN_181 E. coli mcr-1): 4 µg/mL
MIC of antibiotic with 6442 at concn 0.03 (GN_181 E. coli mcr-1): 4 µg/mL
MIC of antibiotic with 6442 at concn 0.125 (GN_181 E. coli mcr-1, 6442 0.125 μg/mL): 1 µg/mL
MIC of antibiotic with 6442 at concn 0.25 (GN_181 E. coli mcr-1): 0.06 µg/mL
MIC of antibiotic with 8980 at conc 0 (GN_181 E. coli mcr-1): 4 µg/mL
MIC of antibiotic with 8980 at conc 1 (GN_181 E. coli mcr-1): 1 to 2 µg/mL
MIC of antibiotic with 8980 at conc 2 (GN_181 E. coli mcr-1): 0.5 to 2 µg/mL
MIC of antibiotic with 8980 at conc 4 (GN_181 E. coli mcr-1): 0.5 to 2 µg/mL
MIC of antibiotic with 8980 at conc 8 (GN_181 E. coli mcr-1): 0.5 to 2 µg/mL
MIC of antibiotic with 8981 at conc 0 (GN_181 E. coli mcr-1): 4 µg/mL
MIC of antibiotic with 8981 at conc 1 (GN_181 E. coli mcr-1): 1 to 2 µg/mL
MIC of antibiotic with 8981 at conc 2 (GN_181 E. coli mcr-1): 1 to 2 µg/mL
MIC of antibiotic with 8981 at conc 4 (GN_181 E. coli mcr-1): 0.5 to 2 µg/mL
MIC of antibiotic with 8981 at conc 8 (GN_181 E. coli mcr-1): 0.5 to 2 µg/mL
MIC of antibiotic with OctC4 at concn 0 (GN_181 E. coli mcr-1): 4 µg/mL
MIC of antibiotic with OctC4 at concn 0.03 (GN_181 E. coli mcr-1): 4 µg/mL
MIC of antibiotic with OctC4 at concn 0.0625 (GN_181 E. coli mcr-1): 2 to 4 µg/mL
MIC of antibiotic with OctC4 at concn 0.25 (GN_181 E. coli mcr-1, OctC4 0.25 μg/mL): 0.06 to 0.25 µg/mL

Reference: patent US11279733B2, “Peptide antibiotics” (priority 2017, dated 2022)
